Test results published in publication PMC9028392, “Oleyl Conjugated Histidine-Arginine Cell-Penetrating Peptides as Promising Agents for siRNA Delivery” (Pharmaceutics, 2022).

Experiments:
[1] = Dynamic light scattering, hydrodynamic diameter and PDI of peptide-siRNA complexes; format: physicochemical; settings: DLS, 25 °C, peptide-siRNA complex at N/P 40, siRNA 50 nM, HBSS, mean of three independent experiments; for Z-Ave (hydrodynamic diameter): Malvern Nano ZS Zetasizer
Description: The complex of oleyl conjugated peptides and siRNA was formed through physical mixing. Appropriate volumes of oleyl conjugated peptides and siRNA solution were mixed in Hank’s balanced salt solution (HBSS) buffer to obtain the complexes. The oleyl conjugated peptide-siRNA complexes were formed due to ionic interaction between positively charged arginine residues of the conjugates and the negatively charged phosphate groups of siRNAs. […] The N to P ratio is commonly used where N represents the number of moles of ionizable nitrogen in the delivery agent. In contrast, P refers to the number of moles of phosphates present in siRNA. The ratio is calculated using the following formula. N/P=number of moles pf peptidex number of ionized nitrogen atoms/(number of moles of siRA ×48)
The peptide-siRNA complexes were characterized using the dynamic light scattering (DLS) technique. Malvern Nano ZS Zetasizer (Westborough, MA, USA) was used to determine the hydrodynamic diameter and surface charge of the complexes at 25 °C. The zeta potential of the complexes was determined at 40 V using disposable folded capillary cells (DTS1070). The calibration of the instrument was performed by transfer standard DTS 1235. The disposable cuvettes were used for determining the hydrodynamic diameter. The N/P ratio 40 was selected for performing the dynamic light scattering experiment. At this N/P ratio, the final concentration of siRNA in the complex was 50 nM whereas the concentration of oleyl-(HR)4 was 24 µM, oleyl-R1-(HR)4 was 19.20 µM, oleyl-R2-(HR)4 was 16 µM, oleyl-R3-(HR)4 was 13.71 µM, oleyl-R4-(HR)4 was 12 µM, and oleyl-R5-(HR)4 was 10.67 µM. The final volume of the complex used for performing zeta potential was 750 µL. The measurements were performed in triplicate, where each measurement consisted of 20 runs. The zeta potential values were calculated using the Smoluchowski model. All the results passed the quality standard of the instrument.
Particle size was also determined at N/P 40 with the same concentrations of siRNA and oleyl conjugated peptides as described above. The experiments were performed in triplicate on each sample with an automatic attenuator setting. The results were checked with the quality standards of the instruments and were represented as mean ± SD of three independent experiments.

[2] = system: MDA-MB-231 cells; assay: Cellular internalization of Alexa Fluor 488-labeled siRNA by flow cytometry; format: cell-based; settings: 24 h; for Increase in cellular uptake of siRNA compared to free siRNA: MDA-MB-231, N/P 40, Alexa-488 siRNA 50 nM, flow cytometry mean fluorescence intensity
Experimental: The cellular uptake of siRNA complexed with oleyl conjugated peptides was evaluated using flow cytometry (BD-FACSVerse; BD Biosciences, San Jose, CA, USA) in live cells. Alexa fluor 488-labeled scrambled siRNA was used for making complexes with oleyl conjugated peptides. The peptide-siRNA complexes were made at N/P 40; the final concentration of siRNA in each complex was 50 nM. The study was performed on MDA-MB-231 according to the protocol described by Mandal et al.. Briefly, approximately 500,000 cells were seeded in each well of the six-well plates and were allowed to settle for 24 h. The cells were treated with the conjugate-siRNA complexes (N/P 40) and were incubated in a humidified atmosphere of 5% CO2 and 95% air at 37 °C for 24 h. After 24 h of treatment, the cells were washed three times with HBBS and were trypsinized. The suspended cells were centrifuged for 5 min at 1000 rpm (96× g) at 4 °C, and the cells pellet was washed with HBSS three times to remove any traces of the medium. Finally, the cells were resuspended in PBS and analyzed by flow cytometer using Alexa-Fluor-488 channel to quantify the mean fluorescence intensity. The mean fluorescent intensity in the treated cells was calculated for each sample based on the calibration of the signal gated with nontreated cells, serving as a negative control. Alexa-488 labeled scrambled siRNA served as a second negative control, and lipofectamine-siRNA treated cells were used as a positive control.

[3] = system: STAT-3; assay: STAT-3 protein silencing by peptide/STAT-3 siRNA complexes (Western blot); format: cell-based; settings: MDA-MB-231, N/P 40, STAT-3 siRNA 50 nM, 48 h; for STAT-3 expression: GAPDH housekeeping
Experimental: STAT-3 is an essential protein overexpressed in several cancer types, including breast cancer. The silencing effect of the STAT-3 siRNA delivered via oleyl conjugated peptides was determined by checking the expression of STAT-3 in peptide-siRNA complex treated cells. Expression of STAT-3 in nontreated cells served as a negative control, whereas the commercially used transfection agent lipofectamine (20 µg/mL) complexed with STAT-3 siRNA (50 nM) served as the positive control. STAT-3 expression was evaluated by the Western blotting experiment. Approximately 500,000 MDA-MB-231 cells were seeded in T-25 flasks and incubated at 37 °C under standard growth conditions. After 24 h, the cells were treated with peptide-siRNA complexes at N/P 40 for 48 h. The final siRNA concentration at this N/P was 50 nM. After 48 h of treatment, MDA-MB-231 cell lysates were prepared according to the standard protocol using RIPA buffer; the cell lysates were then incubated on ice for 1 h, during which the tubes were sonicated for 3 min after every 10 min. Following sonication for 1 h to ensure the complete lysis of cells, the tubes were centrifuged for 15 min at 12,000 rpm (RCF = 13,870× g) at 4 °C. The supernatant from the centrifuged tubes was transferred to a fresh set of pre-cooled microtubes, and the total protein concentration was determined using […]. Briefly, 200 μL of working reagent (50:1 A:B) was added to 25 μL of standard and unknown samples in triplicate into a 96-well plate, and the sample was mixed on a plate shaker for 30 s. The plate was then incubated at 37 °C and 5% CO2 for 30 min. After half an hour of incubation, the absorbance was measured at 562 nm using a Spectra MAX M5 microplate reader. The protein in each treatment sample was quantified using the BSA standard curve. A total of 15 µg of the protein was loaded per well in a 10% Mini-PROTEAN® TGX Stain-Free. Protein gel electrophoresis was performed in buffer (0.192 M glycine, 25 mM Tris, 0.1% SDS) for 30 min at 200 V. The gel was then transferred to Mini PVDF membrane (Catalog no. 1704156) using Trans-Blot® Turbo (Bio-Rad, Hercules, CA, USA). The membrane was blocked in BSA 5% for 3 h and then incubated at 4 °C overnight with the primary antibody (1:1000 in TBS-T). The membrane was then washed with TBS-T six times (5 min each time) and was subsequently incubated with the secondary HRP-linked antibody (1:1000 in TBS-T) for 1 h, followed by the washing steps. The detection of the bands was done by ECL Detect Kit using a ChemiDoc imager (Bio-Rad, Hercules, CA, USA). The bands were quantified using Image Lab™ software of ChemiDoc imager.

[4] = system: MDA-MB-231 cells; assay: Cellular uptake of siRNA by confocal microscopy; format: cell-based; settings: MDA-MB-231, fixed cells, N/P 40, siRNA 50 nM, 24 h
Experimental: Confocal microscopy was used to corroborate the data obtained from flow cytometry. There have been reports for using fixed cells or live cells for imaging the cellular uptake of siRNA. We adopted the protocol of Aliabadi et al. to perform the confocal microscopy. Briefly, approximately 400,000 MDA-MB-231 cells were seeded on coverslips in 6-well plates and were allowed to settle for 24 h. After 24 h, the cells were visualized under an ordinary microscope for their health and confluency. Peptide-siRNA complexes at N/P ratio 40 were made containing a final concentration of 50 nM of siRNA, and the cells were treated with these complexes. Nontreated cells served as negative control while lipofectamine-siRNA complexes were used as a positive control. After 24 h of treatment, the cells grown on coverslips were washed 3 times with HBSS and fixed with 3.7% formaldehyde solutions solution for 30 min at room temperature. The […] of the cells were stained with Texas Red (TR) Phalloidin (Invitrogen) (1:250 in HBSS), while the nuclei of the cells were stained with 4′,6-diamidino-2-phenylindole (DAPI). Nikon A1R confocal microscope system was used to image the fixed cells at 60X objective and different filters for Alexa-488 (FITC), DAPI, and TR.

[5] = MDA-MB-231, N/P 40, siRNA 50 nM, flow cytometry, n = 3

PDI (polydispersity index) [1]	Z-Ave (hydrodynamic diameter) [1] [nm·days]	Substance	Mean fluorescent intensity compared with Alexa-488 siRNA treated cells [2, 5]	Reduction (inhibition) in STAT-3 expression [3]	STAT-3 expression [3]	Increase in cellular uptake of siRNA compared to free siRNA [2]	Green fluorescence (Alexa-488 siRNA) in confocal images [4]	STAT-3 inhibition compared with Lipofectamine 2000 ([3]; three independent experiments)	Cellular uptake compared with lipofectamine [2, 5]	Cellular uptake of siRNA within the series [2, 5]
0.217	115.6	Oleyl-RR-(HR)4-OH [Oleyl-R2-(HR)4]	–	~ 68%	~ 68%	–	–	–	–	–
0.237	115.2	Oleyl-RRRR-(HR)4-OH [Oleyl-R4-(HR)4]	–	~ 41%	~ 41%	~ 80 fold	comparable green fluorescence	–	–	–
0.213	115.6	Oleyl-RRRRR-(HR)4-OH [Oleyl-R5-(HR)4, oleyl conjugated peptide with five R residues between oleyl and (HR)4]	–	~ 80%	~ 20%	–	comparable green fluorescence	comparable inhibition	nonsignificant difference	maximum cellular uptake

The remaining lines, values behind:

Substance	PDI (polydispersity index) [1]	Z-Ave (hydrodynamic diameter) [1] [nm·days]	Mean fluorescent intensity compared with Alexa-488 siRNA treated cells [2, 5]	Reduction (inhibition) in STAT-3 expression [3]	STAT-3 expression [3]	Increase in cellular uptake of siRNA compared to free siRNA [2]	Green fluorescence (Alexa-488 siRNA) in confocal images [4]	STAT-3 inhibition compared with Lipofectamine 2000 ([3]; three independent experiments)	Cellular uptake compared with lipofectamine [2, 5]	Cellular uptake of siRNA within the series [2, 5]
Oleyl-(HR)4-OH	0.213	120.1	nonsignificant difference in intensity	–	–	–	–	–	–	–
Oleyl-R-(HR)4-OH [Oleyl-R1-(HR)4]	0.201	116.9	nonsignificant difference in intensity	–	–	–	–	–	–	–
Oleyl-RRR-(HR)4-OH [Oleyl-R3-(HR)4]	0.229	117	–	~ 55%	~ 55%	~ 80 fold	–	–	–	–
